Assay results reported in US5922557A, “System for stably expressing a high-affinity camp phosphodiesterase and use thereof” (Merck & Co., Inc., priority 1998, dated 1999).
Entries after “also recorded” stand apart in the source; their conditions may differ. Where two headings read alike, the source gives them in different places.

What was measured:
cAMP PDE = conditions: membraneous and cytosolic fractions, rat brain; cited from earlier work
[1] = test system: catalytic portion of PDE IV; conditions: UCR1 and UCR2 deleted; cited from earlier work
FLAG PDE IVAmet330 [2] = test system: FLAG PDE IVAmet330
Method: (§1) CHO-K1 cells were lysed by sonication for 10 secs at a power setting of 50% (BRAUNSONIC Model 2000) in an ice cold solution containing 50 mM Tris, pH 7.5; 1 mM EDTA; and 200 μM mercaptoethanol. The soluble and particulate fractions of the cell were obtained by centrifuging the sonicate for 90 min at 100,000×g at 4° C. PDE activity was measured in a solution containing 50 mM Tris, pH 7.5; 10 mM MgCl2 ; 1 mM EDTA; and 100 nM (or indicated) 3H-cAMP (100 ml final volume) in the presence of varying concentrations of inhibitor. The reaction mixture containing enzyme was incubated for 10 min at 30° C. in 96-well View Plates (PACKARD), and terminated by the addition of 50 μl Phosphodiesterase Scintillation Proximity Assay (SPA) Beads ([sequence]) containing 18 mM ZnSO4. The amount of 3H-cAMP hydrolysis was determined by counting the plates in a WALLAC 1450 μBeta LSC counter.
(§2) CHO-K1 cells stably expressing epitope FLAG PDE IV constructs were lysed by sonication for 10 secs at a power setting of 50% (Braunsonic Model 2000) in an ice cold solution containing 50 mM Tris, pH 7.5; 1 mM EDTA; protease inhibitor cocktail (Boehringer, Montreal, QUE). The soluble and particulate fractions of the cell were obtained by centrifuging the sonicate for 90 min at 100,000×g at 40° C.

patients = conditions: clinic; cited from earlier work
PDE IVh6.1 = PDE IVh6.1 in S. cerevisiae or COS-1 cells; cited from earlier work
[3] = test system: constitutive phosphodiesterase of control cells (VH2); test: Constitutive phosphodiesterase activity in control cells (VH2); assay type: biochemical; conditions: control cells (VH2) in selection media
Method: as §1

[4] = test system: high-affinity rolipram binding site, rat forebrain membranes; conditions: cited from earlier work
[5] = test system: full-length PDE Iva / HPDE IV; conditions: cited from earlier work
FLAG PDE IVAmet330 [6] = target: T1, FLAG PDE IVAmet330 (Homo sapiens, UniProt P27815, M723I); assay type: binding; parameters: made in house; conditions: 0.2 to 100 nM [^3 H](R)-rolipram
Target sequence in this assay (P27815 332-886 M723I): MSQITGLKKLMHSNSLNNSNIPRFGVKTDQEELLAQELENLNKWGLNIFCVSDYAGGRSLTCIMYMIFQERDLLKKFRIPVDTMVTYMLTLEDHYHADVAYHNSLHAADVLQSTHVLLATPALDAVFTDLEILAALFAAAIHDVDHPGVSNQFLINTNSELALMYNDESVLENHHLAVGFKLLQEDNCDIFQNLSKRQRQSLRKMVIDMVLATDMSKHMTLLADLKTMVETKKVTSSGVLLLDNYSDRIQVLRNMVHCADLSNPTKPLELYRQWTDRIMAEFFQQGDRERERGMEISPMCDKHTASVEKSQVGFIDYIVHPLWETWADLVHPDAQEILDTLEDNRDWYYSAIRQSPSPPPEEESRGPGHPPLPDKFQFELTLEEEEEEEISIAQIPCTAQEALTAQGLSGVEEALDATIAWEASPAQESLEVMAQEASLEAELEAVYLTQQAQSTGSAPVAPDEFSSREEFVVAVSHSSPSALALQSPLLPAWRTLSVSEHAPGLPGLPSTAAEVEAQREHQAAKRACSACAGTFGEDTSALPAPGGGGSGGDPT
Method: CHO-K1 cells stably expressing epitope FLAG PDE IV constructs were lysed by sonication for 10 secs at a power setting of 50% (Braunsonic Model 2000) in an ice cold solution containing 50 mM Tris, pH 7.5; 1 mM EDTA; protease inhibitor cocktail (Boehringer, Montreal, QUE). The soluble and particulate fractions of the cell were obtained by centrifuging the sonicate for 90 min at 100,000×g at 40° C. […] The affinity matrix was washed with column buffer until all unbound protein was eluted from the column as determined with a UV-2 flow cell. Bound material was eluted with column buffer containing 0.5 mg/ml. FLAG peptide at a flow rate of 2 ml/min.
(§3) The filters were quickly washed with an ice-cold solution of 50 mM Tris; pH 7.5. […] Non-specific binding amounted to less than 5% of the total measured binding activity.

[7] = test system: catalytic portion of PDE IV; conditions: UCR1 and UCR2 deleted; cited from earlier work; remark: listed apart in the source
[8] = test system: CHO-K1 cells stably expressing rhPDE IVa; test: cells; assay type: cell-based
Method: Levels of cAMP were measured in CHO-K1 cells stably expressing PDE IVa enzyme as outlined in Materials and Methods.
CHO-K1 cells were plated at a density of 10^6 cells/175 cm^2 containing complete media with 500 μg/ml hygromycin. The flasks were maintained in an incubator at 37° C. with 5.0% CO2 for 72 hr. The media was changed and the cells were allowed to grow overnight. The cells were washed and dissociated from the plate with PBS containing 0.5 mM EDTA. Cellular cAMP content was measured by centrifuging the cell suspension at 150 g×10 min and resuspending the cells in a Hanks buffered salt solution at a density of 0.2×10^6 cells/ml. The cells were preincubated at room temperature for 15 min and then incubated with 10 μM prostaglandin I2 (PGI2) and the indicated compound for an additional 10 min. Basal cAMP levels were determined by incubating the cells in 0.1% DMSO. The incubations were terminated by the addition of HCl (0.1N final) and the cells measured for cAMP.
Determinations of whole-cell cAMP content were performed by incubating 100 μl reconstituted rabbit anti-succinyl cAMP serum with 100 μl of the whole-cell reaction or known cAMP standard and 30 pmol of 125I-cAMP TME in a […]™ well (300 μl final volume) at room temperature for 18 h. Total cpm (Bo) was determined in the absence of sample or cAMP standard. The reaction mixture was then aspirated out of the well, and individual wells were counted in a BECKMAN LS 6000SC with the window open from 10-999 for 1 min. The data were expressed as %B/Bo=[(standard or sample cpm--non-specific cpm)/(Bo cpm-non-specific cpm)]×100. Non-specific cpm were determined by incubating only the 125I-cAMP TME with assay buffer (50 mM acetate; pH 5.8) in the ScintiStrip™ well. All determinations were performed in triplicate.

FLAG PDE IVAmet330 [9] = target: T1, FLAG PDE IVAmet330; conditions: KCl and/or HSA
Target sequence in this assay (P27815 332-886 M723I limits assumed): as the sequence (P27815 332-886 M723I) above
Method: as §1, §2

[10] = test system: PKA in CHO-K1 cells stably expressing PDE IVa; test: Whole-cell cAMP dependent protein kinase (PKA) activity ratio; assay type: cell-based; conditions: with 1 μM PGI2, read-out: apparent EC50 to activate PKA
Method: PKA activity ratios were determined as the amount of ^32 P transferred to histone F2B in the presence and absence of cAMP as described in Materials and Methods. Data points represent the fractional PKA activation by incubating cells with the indicated concentrations of inhibitor and […]. Experiments were performed in triplicate. n=3 experiments±SD.
CHO-K1 cells were grown and resuspended as described above except that the Hank's buffer was replaced by a solution containing 0.25M sucrose; 10 mM Tris, pH 7.5; and 0.5 mM EDTA. The cells were preincubated and incubated with 1 μM PGI2 and the indicated compounds at room temperature as described above. The incubations were terminated by the addition of 0.05% Triton X-100 (final) and incubating the cells for 5 min on ice. […] This mixture (final volume 220 μl) was incubated in a waterbath for 30 min at 35° C. and terminated by adding 5 ml of ice cold 5% TCA. The precipatated protein was applied to a Whatman GF/B filter under vacuum and the filter was subsequently washed with 3×5 ml ice cold TCA solution. The amount of -32P incorporation was measured by placing the filters in Aquasol and counting in a BECKMAN LSC 5000. Basal cAMP independent protein kinase activity was determined by the inclusion of 1 μM Protein Kinase A Peptide Inhibitor (19) in the reaction mixture. Maximal cAMP protein kinase activity was determined in the presence of 10 μM cAMP. All determinations were performed in triplicate and activity ratios were calculated as the [(kinase activity in the presence of PDE inhibitor minus cAMP independent kinase activity)/(maximal cAMP kinase activity minus cAMP independent kinase activity)]×100.

[11] = target: T2, recombinant full-length human PDE IVa (rhPDEIVa) (Homo sapiens, UniProt P27815, M723I); test: Phosphodiesterase Scintillation Proximity Assay, inhibition of soluble rhPDE IVa (100,000×g supernatant of transfected CHO-K1 cells); assay type: biochemical
T2 construct: a cDNA insert encoding for a full-length human PDE IVa enzyme; made in house; host or cells: CHO-K1 cells, stably transfected (also expressing the prostanoid IP receptor); 100,000xg supernatant of the sonicate
T2 sequence (P27815 whole entry M723I): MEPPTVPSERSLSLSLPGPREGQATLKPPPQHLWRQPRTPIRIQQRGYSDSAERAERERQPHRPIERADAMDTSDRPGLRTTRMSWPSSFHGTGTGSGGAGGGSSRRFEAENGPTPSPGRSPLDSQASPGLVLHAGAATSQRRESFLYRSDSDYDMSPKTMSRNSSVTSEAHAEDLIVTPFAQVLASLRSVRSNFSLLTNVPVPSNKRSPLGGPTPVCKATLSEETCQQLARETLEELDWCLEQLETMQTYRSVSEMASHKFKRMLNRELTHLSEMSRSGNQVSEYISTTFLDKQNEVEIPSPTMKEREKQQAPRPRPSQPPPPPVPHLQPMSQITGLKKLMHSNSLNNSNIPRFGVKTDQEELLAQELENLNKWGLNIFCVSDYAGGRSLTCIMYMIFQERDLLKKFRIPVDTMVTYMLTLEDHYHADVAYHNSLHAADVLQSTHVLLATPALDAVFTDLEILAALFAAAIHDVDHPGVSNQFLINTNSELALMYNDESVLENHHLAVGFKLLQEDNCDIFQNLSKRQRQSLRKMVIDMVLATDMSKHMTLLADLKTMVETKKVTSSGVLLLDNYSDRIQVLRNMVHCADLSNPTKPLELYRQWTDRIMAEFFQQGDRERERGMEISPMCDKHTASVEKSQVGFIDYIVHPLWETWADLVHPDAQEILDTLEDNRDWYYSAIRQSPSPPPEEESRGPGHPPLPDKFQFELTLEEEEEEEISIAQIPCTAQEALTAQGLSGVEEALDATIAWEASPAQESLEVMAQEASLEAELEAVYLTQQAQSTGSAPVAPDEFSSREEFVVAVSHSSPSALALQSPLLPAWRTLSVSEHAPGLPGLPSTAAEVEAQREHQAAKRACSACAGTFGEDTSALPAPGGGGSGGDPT
Method: Inhibition of soluble rhPDEIVa by specific inhibitors was examined at 100 nM substrate. Enzyme activity was determined as described in Materials and Methods using the Amersham SPA beads that specifically bind 5'AMP.
Inhibition of soluble rhPDEIVa by specific inhibitors was examined in the presence of 5 mM to 100 mM MgCl2. Enzyme activity was determined as described in Materials and Methods using the Amersham SPA beads that specifically bind 5'AMP in the presence of […] cAMP substrate.

FLAG PDE IVA [12] = target: T3, FLAG PDE IVA (Homo sapiens, UniProt P27815, M723I); conditions: 150 mM KCl with 3 mg/ml HSA vs HSA alone
T3 sequence (P27815 whole entry M723I): as above
Method: PDE activity was measured in a solution containing 50 mM Tris, pH 7.5; 10 mM MgCl2; 1 mM EDTA; and 100 nM (or indicated) 3H-cAMP ([…] final volume) in the presence of varying concentrations of inhibitor. The reaction mixture containing enzyme was incubated for 10 min at 30° C. in 96-well View Plates (PACKARD), and terminated by the addition of 50 μl Phosphodiesterase Scintillation Proximity Assay (SPA) Beads ([…]) containing 18 mM ZnSO4. The amount of 3H-cAMP hydrolysis was determined by counting the plates in a WALLAC 1450 μBeta LSC counter.

[13] = test system: eosinophils from guinea pigs; test: Whole-cell cAMP elevation in guinea pig eosinophils; assay type: cell-based; conditions: vs RS 14203 and (R)-rolipram; data not presented
human neutrophils = test: Whole-cell cAMP elevation in human neutrophils; assay type: cell-based; conditions: vs RS 14203 and (R)-rolipram; data not presented
HL-60 cells = test: Whole-cell cAMP elevation in HL-60 cells; assay type: cell-based; conditions: vs RS 14203 and (R)-rolipram; data not presented
U937 cells = test: Whole-cell cAMP elevation in U937 cells; assay type: cell-based, human; conditions: vs RS 14203 and (R)-rolipram; data not presented
[14] = test system: PDE IVA enzyme and various deletion mutants; conditions: cited from earlier work
FLAG PDE IVA [15] = target: T3, FLAG PDE IVA
Method: Each point represents the mean of 3 separate experiments performed in duplicate±SEM. […] Each point represents the average of 3 separate experiments.
CHO-K1 cells stably expressing epitope FLAG PDE IV constructs were lysed by sonication for 10 secs at a power setting of 50% (Braunsonic Model 2000) in an ice cold solution containing 50 mM Tris, pH 7.5; 1 mM EDTA; protease inhibitor cocktail (Boehringer, Montreal, QUE). The soluble and particulate fractions of the cell were obtained by centrifuging the sonicate for 90 min at 100,000×g at 40° C. Twenty-five ml. […] The affinity matrix was washed with column buffer until all unbound protein was eluted from the column as determined with a UV-2 flow cell. Bound material was eluted with column buffer containing 0.5 mg/ml. FLAG peptide at a flow rate of 2 ml/min.
(§4) The filters were quickly washed with an ice-cold solution of 50 mM Tris; pH 7.5.

HSA = test: [3H](R)-rolipram binding to HSA; parameters: species or system human; conditions: presence or absence of 150 mM KCl
Method: as §3

rhPDE IVa = rhPDE IVa (Homo sapiens, UniProt P27815, M723I)
Chain of rhPDE IVa (P27815 whole entry M723I): as above
Method: Shown is the saturable binding to the soluble rhPDE IVa enzyme with increasing concentrations of ligand from 0.2 to 100 nM (panal A).
as §4

COc1ccc(C2CNC(=O)C2)cc1OC1CCCC1 (racemic) [rolipram]
concentrations inhibiting cAMP PDE activity (cAMP PDE): micromolar concentrations | saturable high-affinity rolipram binding [1]: no detectable saturable high-affinity rolipram binding | sensitivity of truncated PDE IVa to inhibition (FLAG PDE IVAmet330 [2]; truncated, catalytically active enzyme): low sensitivity to inhibition by rolipram | nausea in patients (patients): profound episodes of nausea in patients | therapeutic window (patients): extremely narrow therapeutic window | inhibitory kinetics with respect to substrate (PDE IVh6.1): simple competitive inhibitor | rolipram-sensitivity of constitutive phosphodiesterase activity [3]: did not exhibit any rolipram-sensitivity | difference between measured Kd (binding) and IC50 (enzymatic) [4]: > 1000 fold | inhibitory kinetics with respect to full-length PDE Iva ([5]; rolipram (racemic)): Mixed inhibitory kinetics | saturable high-affinity binding to truncated enzyme (FLAG PDE IVAmet330 [6]): fails to bind rolipram with high-affinity

COc1ccc([C@@H]2CNC(=O)C2)cc1OC1CCCC1 [(R)-rolipram]
concentration required for inhibition of catalytic portion [7]: at least a micromolar concentration | EC50 ([8]; CHO-K1, with 10 μM PGI2 (b116 prints 10 FM), read-out: EC50 for elevating cellular cAMP): 486 nM | effect of assay conditions on sensitivity of FLAG PDE IVAmet330 to (R)-rolipram (FLAG PDE IVAmet330 [9]): unaffected | EC50 ([10]; CHO-K1): 168 nM | effect of assay solution osmolality on rolipram sensitivity of the enzyme [11]: no effect upon the rolipram sensitivity of the enzyme | inhibition of cAMP hydrolytic activity in the stable clones [11]: completely inhibitable | additional increase in enzyme sensitivity to (R)-rolipram (FLAG PDE IVA [12]): 3 fold | Hill co-effecient for inhibition of HPDE IV catalytic activity [5]: 0.43

COc1ccc([C@H](Cc2ccncc2)c2ccccc2)cc1OC1CCCC1 [CDP 840]
relative potency / response in elevating whole-cell cAMP ([8]; with PGI2): least potent of the compounds tested, and a maximal "plateau" response was not obtained | discrimination between high- and low-affinity states of the enzyme (FLAG PDE IVAmet330 [2]; truncated vs full-length enzyme): do not discriminate between the two affinity states of the enzyme | EC50 [10]: 319 nM | relative potency at elevating whole-cell cAMP [13]: consistently less potent than RS 14203 and (R)-rolipram | effect of increased salt / ionic strength on inhibitory potency (IC50) [11]: not substantially affected; also recorded: not appreciably affected; also recorded: not affected by an increase of ionic strength; also recorded: not affected by the increases in assay buffer ionic strength | relative potency against recombinant full-length PDE IVa enzyme [11]: as potent as RS 14203 and more potent than (R)-rolipram | IC50 ([11]; read-out: IC50 for inhibition of soluble PDE IVa activity): 9 nM | relative potency at elevating whole-cell cAMP (human neutrophils): consistently less potent than RS 14203 and (R)-rolipram | relative potency at elevating whole-cell cAMP (HL-60 cells): consistently less potent than RS 14203 and (R)-rolipram | relative potency at elevating whole-cell cAMP (U937 cells): consistently less potent than RS 14203 and (R)-rolipram

COc1ccc(C(=O)Nc2c(Cl)cncc2Cl)cc1OC1CCCC1 [RP 73401]
class of binding sites [14]: single class of high-affinity binding sites

COc1ccc([C@@H]2CNC(=O)C2)cc1OC1CCCC1 [[^3 H](R)-rolipram]
Stochiometry (FLAG PDE IVA [15]; 0 mM KCl): 0.02 (0.0) fmol [^3 H](R)-Rolipram/fmol P | Bmax (FLAG PDE IVA [15]; 0 mM KCl + 3 mg/ml HSA): 150 (47) fmol [^3 H](R)-rolipram | Stochiometry (FLAG PDE IVA [15]; 0 mM KCl + 3 mg/ml HSA): 0.10 (0.03) fmol [^3 H](R)-Rolipram/fmol P | Bmax (FLAG PDE IVA [15]; 3 mg/ml HSA): 150±47 fmol/1.6 pmol enzyme | increase in Bmax (FLAG PDE IVA [15]; 3 mg/ml HSA): 5 fold | Bmax (FLAG PDE IVA [15]; 150 mM KCl): 63 (16) fmol [^3 H](R)-rolipram | Stochiometry (FLAG PDE IVA [15]; 150 mM KCl): 0.04 (0.01) fmol [^3 H](R)-Rolipram/fmol P | Bmax (FLAG PDE IVA [15]; 150 mM KCl (text)): 63±16 fmol/1.6 pmol enzyme | Bmax (FLAG PDE IVA [15]; 150 mM KCl + 3 mg/ml HSA): 240 (37) fmol [^3 H](R)-rolipram | Stochiometry (FLAG PDE IVA [15]; 150 mM KCl + 3 mg/ml HSA): 0.15 (0.03) fmol [^3 H](R)-Rolipram/fmol P | Bmax (FLAG PDE IVA [15]; 150 mM KCl + 3 mg/ml HSA (text)): 240 fmol/1.6 pmol purified enzyme | specific binding to HSA (HSA): No specific binding | Bmax (rhPDE IVa; 150 mM KCl): 0.47 pmol/20 μg prot. | Hill coefficient of binding (rhPDE IVa; 300 mM KCl): 2 | Bmax (rhPDE IVa; absence of added KCl): 0.16 pmol/20 μg prot. | saturable high-affinity binding to truncated enzyme (FLAG PDE IVAmet330 [6]): did not exhibit any saturable binding; also recorded: does not display any saturable high-affinity [^3 H](R)-rolipram binding
